“Also recorded” adds a separate entry of the source.
Tests used:
males = experiment: Bioassay of HPLC-purified peak; type: in vivo; details: retention time 9.7 minutes
Method: A Thermo Finnigan LCQ Deca XP Max was used with electrospray ionization in positive ion mode in the 50-1000 AMU range. The Thermo Separation spectra HPLC system consisted of a P4000 quaternary pump, an AS 3000 auto sampler, and a UV 6000 diode array detector. The solvents were water with (a) 0.1% formic acid and (b) 90% acetonitrile-10% water with 10 mM ammonium formate. The column temperature was maintained at 60° C. and a solvent flow of 1.0 ml/min. The reversed phase column (PLRP-S Polymeric reversed phase column, 250×4.6 mmid, Varian Inc.) was eluted with a solvent composition starting with 90:10 (a,b) for 2 minutes, followed by a gradient to 5:95 in 20 minutes and an additional 5 minutes at 5:95. Ultraviolet absorption was monitored at 190 and 400 nm. Solvent flow between the ultraviolet detector and mass spectroscopy electrospray interface split 9:1 with a low-volume micro needle P450 splitter valve (Upchurch Scientific, Oak Harbor, Wash.), making it possible to obtain spectra of eluted compounds and simultaneously collect 90% of the injected material for bioassay. […] This was confirmed to be ascr#1 using NMR analysis.

C. elegans [1] = experiment: Ascaroside function (Table 12); type: in vivo, Caenorhabditis elegans; parameters: key to Attract Females/Herm. / Promote Dauer Formation / Attract Males: A very strong result of affecting nematode behavior is designated in the table as “strong.”; details: listed = has this function
Method: (§1) Various ascarosides and ascaroside blends were administered to various nematodes described below (Table 12). […] A very strong result of affecting nematode behavior is designated in the table as “strong.”

S. glaseri = experiment: Ascaroside function (Table 12); type: in vivo; details: listed = has this function
Method: as §1

Panagrellus redivivus = experiment: Ascaroside function (Table 12); type: in vivo; details: listed = has this function
Method: as §1

[2] = test system: Several of the tested nematode species; experiment: Retention assay; type: in vivo; details: 1 nM, 1 μM and 1 mM tested
Method: OP50 E. coli was grown on a standard 5 cm agar plate (made with standard Nematode Growth Medium). The bacterial lawn was 16 mm in diameter and was grown overnight at 20° C. before being used in trials. Two 4 mm spots (0.6 μL) were placed on opposite sides of the bacterial lawn (using a transparent template to guide spot placement), and several minutes elapsed for the liquid to settle in before placing nematodes down on the assay. Recording began immediately upon worm placement. 0.6 μL of the control was placed on one side of the lawn, and 0.6 μL of the experimental cue was placed on the other side of the lawn, changing the location of the cue throughout trials between left/right and top/bottom to avoid bias.
Nematodes were isolated by gender at the L4 stage the day before being used in trials as developed adults. Worms were evenly divided and placed at two points equidistant from the foci of the scoring region. Trials were recorded for 20 minutes, and frames were collected for analysis at 1 frame per second. Results were averaged from at least three different trials. For every nematode species in this study, a different total number of worms (using water in both scoring regions) was tested to determine the minimum number of worms necessary for consistent unbiased results over a 20 minute trial. The total number of worms used in the multiple species assays depended on that species' optimal parameters. 10 worms were used for P. redivivus males and females, 20 worms were used for C. elegans males and O. dolichuridae males, and 14 worms were used for S. glaseri males. The Automated Software was used to compare worm occupancy in each scoring region over time, and the Chemotaxis Index (Bargmann et al., Cell 74:515-27 (1993), which is hereby incorporated by reference in its entirety) was adapted to score preference or avoidance to each ascaroside.
A video camera attached to the microscope produced a digital video stream, which was then analyzed. The ratio of the time the average worm spent in each region of interest was calculated for every trial. For ease of implementation, all worms in a single experiment were assumed to be roughly the same size. Thus worm pixels were counted instead of whole worms, allowing fractions of a worm in the region of interest to be taken into account. It also eliminated the need for a shape-based worm identification algorithm, and allowed each frame to be analyzed independently. A band-pass filter was applied to each frame to eliminate the effect of uneven lighting and also accentuate the worms against the background. The worm was then identified after thresholding the filtered image. Throughout each experiment, the locations and sizes of the regions of interest were known. Through the filtering described above, it is known which pixels are occupied by worms and which ones are not. Thus, the ratio of worm-pixels to all pixels inside the region of interest can be calculated to produce the worm-occupancy ratio. This calculation was done for every frame, giving a plot output of worm-occupancy ratio vs. time for each region.

ASI sensory neurons = details: in vivo; cited from earlier work
C. elegans [3] = experiment: Quadrant chemotaxis assay; type: in vivo; details: for chemotaxis of hermaphrodites from all tested strains: 1 pM icas#3, except npr-1(ad609) for the blend
Method: Chemotaxis to both non-indole and indole ascarosides was assessed on 10 cm four-quadrant petri plates (Wicks et al., Dev. Biol. 221:295-307 (2000), which is hereby incorporated by reference in its entirety). Each quadrant was separated from adjacent ones by plastic spacers (FIG. 1B). Pairs of opposite quadrants were filled with nematode growth medium (NGM) agar containing either indole ascarosides or non-indole ascarosides at different concentrations. Animals were washed gently in a S-basal buffer, placed in the center of a four-quadrant plate with ascarosides in alternating quadrants, and scored after 15 minutes and 30 minutes. A chemotaxis index was calculated as: (the number of animals on ascaroside quadrants minus the number of animals on buffer quadrants)/(total number of animals).
Chemotaxis to hbas#3 was assessed on 10 cm four-quadrant petri plates (Wicks et al., Dev. Biol. 221:295-307 (2000), which is hereby incorporated by reference in its entirety). Each quadrant was separated from adjacent ones by plastic spacers. Pairs of opposite quadrants were filled with nematode growth medium (NGM) agar containing different concentrations of hbas#3. Animals were washed gently in an S-basal buffer and placed in the center of a four-quadrant plate with ascarosides in alternating quadrants, and scored after 15 minutes and 30 minutes. A chemotaxis index was calculated as: (the number of animals on ascaroside quadrants minus the number of animals on buffer quadrants)/(total number of animals).

C. elegans [4] = experiment: Spot attraction assay; type: in vivo
Method: The spot attraction assays were conducted according to a previously reported method (Pungaliya et al., PNAS 106:7708-13 (2009); Srinivasan et al., Nature 454:1115-18 (2008), which are hereby incorporated by reference in their entirety). For both C. elegans hermaphrodites and males, 50-60 worms were harvested daily at the fourth larval stage (L4) and stored segregatedly by sex at 20° C. overnight, to be used as young adults the following day. For the competition experiments, two conditions were used: 120 nM ascr#3 and 10 nM icas#3 (Condition 1), or 12 μM ascr#3 and 1 μM icas#3 (Condition 2) in water containing 10% ethanol. Aliquots were stored at −20° C. in 20 μL tubes. 10% ethanol in water was used as control.
Attraction assays with hbas#3 were conducted as previously reported (Srinivasan et al., Nature 454:1115-18 (2008); Pungaliya et al., Proc. Natl. Acad. Sci. U.S.A. 106:7708-13 (2009), which are hereby incorporated by reference in their entirety). For the attraction assays, 50-60 hermaphrodite worms were harvested daily at the early fourth larval stage (L4) and stored at 20° C. overnight to be used as young adults the following day. Hbas#3 was dissolved in water containing 10% ethanol. Aliquots were stored at −20° C. in 20 μL tubes. 10% ethanol in water was used as control.

C. elegans [5] = experiment: Measurement of locomotory parameters (automated worm-tracking); type: in vivo
Method: Reversal frequency and velocity were measured using an automated worm-tracking system (Pungaliya et al., PNAS 106:7708-13 (2009); Srinivasan et al., Nature 454:1115-18 (2008), which are hereby incorporated by reference in their entirety).

C. elegans [6] = experiment: Aggregation assay; type: in vivo
Method: Aggregation behavior of worms was measured using assays reported in de Bono & Bargmann, Cell 94:679-89 (1998), which is hereby incorporated by reference in its entirety. Aggregation assays were conducted on standard NGM plates. Plates containing indole ascarosides were made by adding the indole ascaroside stock solution to the NGM media before they were poured onto the plates. These plates were dried at room temperature for 2 to 3 days. Control plates were treated similarly, except that ethanol solutions instead of icas solutions were added to the plates, corresponding to the amount of ethanol introduced via the icas solutions. Final ethanol concentrations of the plates were below 0.1% for all conditions. After drying, both control plates and plates containing indole ascarosides were seeded with 150 μl of an overnight culture of E. coli OP50 using a micropipette, and were allowed to dry for 2 days at room temperature. For “low worm density” experiments, 20 worms were placed onto the lawn and left at 20° C. for 3 hours. For “high worm density” experiments, approximately 120 worms were placed onto the bacterial lawn and left at 20° C. for 3 hours. Aggregation behavior was quantified as the number of animals that were in touch with two or more animals at greater than 50% of their body length.

AIA interneurons = experiment: Calcium imaging (G-CaMP); type: in vivo, C. elegans; details: 1 μM icas#3
Text: Transgenic lines that express the genetically encoded Ca^2+ sensor in ASK (kyEx2866) and AIA (kyEx2916) (Macosko et al., Nature 458:1171-75 (2009), which is hereby incorporated by reference in its entirety) were used for calcium imaging. Young adults or adult worms were inserted into an “Olfactory chip” microfluidic device (Chronis et al., Nat. Methods 4:727-31 (2007), which is hereby incorporated by reference in its entirety). Dilutions of icas#3 were done with S-basal buffer (with no cholesterol). As stock solutions of icas#3 contained small amounts of ethanol, equivalent amounts of ethanol were added to the S-basal control flow.
Imaging was conducted using an inverted Zeiss microscope equipped with an Andor camera. Exposure time for image acquisition was 300 milliseconds. Before imaging the ASK neuron, the worm was exposed to blue light for 3 minutes as ASK responds to the blue light itself. […] Movies were analyzed using custom-made Matlab scripts. The first peak of fluorescence immediately after exposure to buffer or icas#3 was chosen for calculating the average change in fluorescence upon exposure to either buffer or icas#3. The value for this maximum was then subtracted from the mean fluorescence during the 5 seconds before the delivery of icas#3/buffer (corresponding to the region between 5 to 10 seconds in FIG. 2D).

C[C@H](CCCCC(=O)O)O[C@@H]1O[C@@H](C)[C@H](O)C[C@H]1O [ascr#1]
activity to males in the bioassay (males): active to males | Attract Males (C. elegans [1]): ascr#l | Promote Dauer Formation (C. elegans [1]): ascr#1 | Attract Males (S. glaseri): ascr#1 | Attract Males (Panagrellus redivivus): ascr#1 | preference for ascaroside-conditioned areas [2]: preferred areas conditioned

C[C@@H]1O[C@@H](OCCC(=O)O)[C@H](O)C[C@H]1O [ascr#5]
calcium transients in the ASI sensory neurons (ASI sensory neurons): does not elicit calcium transients | Promote Dauer Formation (C. elegans [1]): ascr#5 ([strong]) | Repel Females/Herm. (C. elegans [1]): ascr#5

C[C@H](CCCC/C=C/C(=O)O)O[C@@H]1O[C@@H](C)[C@H](OC(=O)c2c[nH]c3ccccc23)C[C@H]1O [icas#3]
chemotaxis of hermaphrodites from all tested strains (C. elegans [3]; after 15 minutes, 10 nM of each ascr#2,3,5): attracted | chemotaxis of hermaphrodites from all tested strains (C. elegans [3]; after 30 minutes, 10 nM ascr#2,3,5): attracted | response of daf-22 hermaphrodites (C. elegans [3]; daf-22 mutant): as strongly as N2 worms | concentration as low as which resulted in strong attraction of hermaphrodites (C. elegans [3]; in the presence and absence of food): 1 pM | chemotaxis of npr-1(ad609) hermaphrodites (C. elegans [3]; npr-1(ad609) mutant): strongly attracted | chemotaxis of social wild-type hermaphrodites (C. elegans [3]; strains RC301 and CB4856): strongly attracted | attraction in spot attraction assay (C. elegans [4]; 1 pmol (high concentrations), N2 hermaphrodites and him-5 males): attractive to both C. elegans sexes; also recorded: attracted both males and hermaphrodites | attraction after ablation of ASI neurons (C. elegans [4]; ASI-ablated hermaphrodites): no significant effect | attraction after ablation of ASK sensory neurons (C. elegans [4]; ASK-ablated hermaphrodites): near complete loss of attraction | attraction of daf-22 hermaphrodites (C. elegans [4]; daf-22 mutant): attracted; also recorded: as strongly as N2 worms | attraction of AIA-deficient worms (C. elegans [4]; hyperactive MEC-4 in AIA interneuron): did not show any attraction | attraction of hermaphrodites (C. elegans [4]; low concentrations, N2 hermaphrodites): strongly attractive to hermaphrodites | attraction of males (C. elegans [4]; low concentrations, males): no longer attracted | attraction of npr-1(ad609) hermaphrodites (C. elegans [4]; npr-1(ad609) mutant): strongly attracted | attraction of social wild-type hermaphrodites (C. elegans [4]; strains RC301 and CB4856): strongly attracted | response after ablation of RMG interneuron (C. elegans [4]; wild-type and ncs-1::gfp worms, RMG ablated): did not affect icas#3 response | worm velocity (C. elegans [5]; 1-10 pM icas#3): not significantly reduced | mean stopped duration (C. elegans [5]; aggregation-inducing concentrations, N2 hermaphrodites): strongly increase | reversal frequency and velocity of ASK-ablated hermaphrodites (C. elegans [5]; icas#3 plates): neither increased reversal frequency nor decreased velocity | Attract Females/Herm. (C. elegans [1]): icas#3 ([strong]) | Attract Males (C. elegans [1]): icas#3 ([strong]) | aggregation of CB4856 (C. elegans [6]; 1 nM of icas#3): not significantly different from the control | aggregation of hermaphrodites lacking the ASK neurons (C. elegans [6]; any of the tested concentrations): did not aggregate | aggregation of daf-22 hermaphrodites (C. elegans [6]; compared with N2): less aggregation than N2 worms at 1 pM icas#3 but not at 10 pM icas#3 | aggregation of solitary and social hermaphrodites (C. elegans [6]; constant background concentration): strongly increased the propensity | aggregation of npr-1(ad609) hermaphrodites (C. elegans [6]; entire tested concentration range, no drop off): increased aggregation | aggregation of him-5 males (C. elegans [6]; icas#3 plates): significantly increased | concentration window for hermaphrodite attraction and aggregation (C. elegans [6]; in vivo): femtomolar to low picomolar | concentration as low as which gave a very strong increase in aggregation (C. elegans [6]; low worm density, solitary and social hermaphrodites): 10 fM | G-CaMP fluorescence in the AIA neurons (AIA interneurons): significantly increased G-CaMP fluorescence

Reference: patent publication US9487551B2, “Small molecule compounds that control mammal-pathogenic nematodes” (California Institute of Technology, priority 2011, dated 2016)
